Measured values taken from patent US5929097A, “Preparation and use of ortho-sulfonamido aryl hydroxamic acids as matrix metalloproteinase and tace inhibitors” (American Cyanamid Company, priority 1997, dated 1999).
Where two headings read alike, the source gives them in different places.

Tests used:
TACE = target: T1, TACE (Homo sapiens, UniProt P78536); test: TACE inhibition (fluorescent peptidyl substrate); format: biochemical
T1 construct: purchased Immunex

MMP9 = test: In vivo MMP inhibition (implanted dialysis tubing containing MMP enzyme); design: species or system rat (Sprague-Dawley) or mouse (CD-1)
MMP-13 = MMP-13 (Homo sapiens, UniProt P45452); test: MMP-13 inhibition (thiopeptide/DTNB or fluorescent peptide substrate); format: biochemical
MMP-9 = MMP-9 (Homo sapiens, UniProt P14780); test: biochemical
MMP-1 = target: T2, MMP-1 (Homo sapiens, UniProt P03956); test: MMP-1 inhibition (thiopeptide/DTNB or fluorescent peptide substrate); format: biochemical
T2 sequence (P03956 100-469): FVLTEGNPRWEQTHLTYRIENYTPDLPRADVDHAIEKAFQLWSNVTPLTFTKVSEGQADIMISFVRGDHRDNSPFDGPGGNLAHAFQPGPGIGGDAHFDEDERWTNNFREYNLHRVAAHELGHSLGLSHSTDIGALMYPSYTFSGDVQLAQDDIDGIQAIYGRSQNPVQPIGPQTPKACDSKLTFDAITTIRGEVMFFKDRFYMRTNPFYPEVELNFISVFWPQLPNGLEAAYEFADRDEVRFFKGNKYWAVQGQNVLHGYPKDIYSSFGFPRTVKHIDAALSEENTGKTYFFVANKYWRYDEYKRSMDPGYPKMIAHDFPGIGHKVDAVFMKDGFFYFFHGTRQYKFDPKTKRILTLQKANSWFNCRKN

Chain of MMP-9 (P14780 94-707): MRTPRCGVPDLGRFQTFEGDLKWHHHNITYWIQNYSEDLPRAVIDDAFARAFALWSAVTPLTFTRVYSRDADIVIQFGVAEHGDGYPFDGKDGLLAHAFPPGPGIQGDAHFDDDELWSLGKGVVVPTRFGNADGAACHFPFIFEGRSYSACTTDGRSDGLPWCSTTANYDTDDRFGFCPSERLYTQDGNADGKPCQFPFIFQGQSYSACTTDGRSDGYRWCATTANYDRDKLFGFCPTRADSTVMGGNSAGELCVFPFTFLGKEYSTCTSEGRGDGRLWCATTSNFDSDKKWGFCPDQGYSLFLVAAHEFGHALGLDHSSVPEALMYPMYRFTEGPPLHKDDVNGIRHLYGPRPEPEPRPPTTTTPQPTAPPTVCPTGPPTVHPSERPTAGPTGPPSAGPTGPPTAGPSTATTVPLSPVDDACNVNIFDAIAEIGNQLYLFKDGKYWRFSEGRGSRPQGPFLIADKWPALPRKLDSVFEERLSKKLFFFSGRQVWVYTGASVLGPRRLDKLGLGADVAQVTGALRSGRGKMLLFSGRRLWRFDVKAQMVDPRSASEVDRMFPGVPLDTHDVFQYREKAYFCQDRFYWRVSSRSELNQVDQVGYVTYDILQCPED
T1 sequence (P78536 215-824): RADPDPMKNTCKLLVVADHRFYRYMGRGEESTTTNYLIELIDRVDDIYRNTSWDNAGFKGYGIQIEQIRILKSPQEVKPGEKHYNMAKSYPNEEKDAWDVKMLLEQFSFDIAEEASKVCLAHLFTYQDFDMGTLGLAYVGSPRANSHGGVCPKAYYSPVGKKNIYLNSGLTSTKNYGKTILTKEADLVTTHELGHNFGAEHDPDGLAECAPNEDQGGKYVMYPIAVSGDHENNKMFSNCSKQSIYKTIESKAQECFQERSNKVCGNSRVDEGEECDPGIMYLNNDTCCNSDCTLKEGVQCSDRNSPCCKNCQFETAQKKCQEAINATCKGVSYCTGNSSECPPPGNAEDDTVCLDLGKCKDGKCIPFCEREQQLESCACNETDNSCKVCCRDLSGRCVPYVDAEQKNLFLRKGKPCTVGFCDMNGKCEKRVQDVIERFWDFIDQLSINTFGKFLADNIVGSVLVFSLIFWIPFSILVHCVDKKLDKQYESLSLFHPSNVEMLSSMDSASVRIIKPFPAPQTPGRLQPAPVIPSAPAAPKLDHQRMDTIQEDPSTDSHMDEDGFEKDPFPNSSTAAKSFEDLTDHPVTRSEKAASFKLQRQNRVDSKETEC

Row | IC50 (MMP-9) [nM] | IC50 (MMP-1) [nM] | Structure (SMILES) | in-vivo MMP % inhibition vs. MMP9 (MMP9; 100 mg/kg, ip) [%] | further results
1 |  |  | COc1ccc(S(=O)(=O)N(Cc2ccccc2)c2c(Cl)cccc2C(=O)NO)cc1 [Example 24, 2-[Benzyl-(4-methoxy-benzenesulfonyl)-amino]-3-chloro-N-hydroxy-benzamide] |  | IC50 (TACE; read-out: TACE IC50): 1000 nM
2 |  |  | COc1ccc(S(=O)(=O)N(Cc2ccccc2)c2c(OCc3ccccc3)cccc2C(=O)NO)cc1 [Example 34, 2-[Benzyl-(4-methoxy-benzenesulfonyl)-amino]-3-benzyloxy-N-hydroxy-benzamide] | 31.6 | 
3 | 7 | 55 | COc1ccc(S(=O)(=O)N(Cc2cccnc2)c2c(C(=O)NO)cc(C)cc2-c2cccs2)cc1 [Example 145, N-Hydroxy-2-[(4-methoxy-benzenesulfonyl)-pyridin-3-ylmethyl-amino]-5-methyl-3-thiophen-2-yl-benzamide] |  | IC50 (MMP-13; read-out: MMP-13 IC50): 3 nM; IC50 (TACE; read-out: TACE IC50): 158 nM
4 |  |  | COc1ccc(S(=O)(=O)N(Cc2cccnc2)c2c(C)cc(Br)cc2C(=O)NO)cc1 [Example 91, 5-Bromo-N-hydroxy-2-[(4-methoxy-benzenesulfonyl)-pyridin-3-ylmethyl-amino]-3-methyl-benzamide] |  | in-vivo MMP % inhibition vs. MMP9 (MMP9; 100 mg/kg, po): 55%
5 | 6.8 | 3240 | Cc1cccc(C(=O)NO)c1N(C)S(=O)(=O)c1ccc(Oc2ccncc2)cc1 [Example 417] |  | 
6 |  | 20 | CCCCCCCCN(c1c(CN2CCN(C)CC2)cccc1C(=O)NO)S(=O)(=O)c1ccc(OC)cc1 [Example 325, N-Hydroxy-2-[(4-methoxy-benzenesulfonyl)-octyl-amino] -3-(4-methyl-piperazin-1-ylmethyl)-benzamide] |  | 
7 |  |  | COc1ccc(S(=O)(=O)N(Cc2ccccc2)c2c(C)cc(Br)cc2C(=O)NO)cc1 [Example 25, 2-[Benzyl-(4-methoxy-benzenesulfonyl)-amino]-5-bromo-N-hydroxy-3-methyl-benzamide] | 32 | 
8 |  |  | CCCN(c1c(C)cc(C)cc1C(=O)NO)S(=O)(=O)c1ccc(OC)cc1 [Example 117, N-Hydroxy-2-[(4-methoxy-benzenesulfonyl)-propyl-amino]-3,5-dimethyl-benzamide] | 28.3 | 

Row | Structure (SMILES) | IC50 (MMP-9) [nM] | IC50 (MMP-1) [nM] | in-vivo MMP % inhibition vs. MMP9 (MMP9; 100 mg/kg, ip) [%] | further results
9 | COc1ccc(S(=O)(=O)N(Cc2cccnc2)c2c(OCc3cccnc3)cccc2C(=O)NO)cc1 [Example 61] | 34 |  |  | IC50 (MMP-13): 33 nM; IC50 (TACE): 289 nM; in-vivo MMP % inhibition vs. MMP9 (MMP9; 20 mg/kg, po): 46%; in-vivo MMP % inhibition vs. MMP9 (MMP9; 50 mg/kg, po): 59%
